Active and inactive are the calls of the source. The rule behind the calls is not given here.
Columns and labels:
HEK293 [1] = test: Displacement of [125I]-CCL2 from HCMV US28 expressed in HEK293 cells at 10 uM after 3 hrs by gamma counting method relative to control; type: cell-based; settings: Human betaherpesvirus 5
[2] = Displacement of [125I]-CCL2 from HCMV US28 expressed in HEK293 cells after 3 hrs by gamma counting method; type: cell-based, Human betaherpesvirus 5
[3] = Modulation of basal activity of HCMV US28 delta300 mutant expressed in tetracyclin-induced HEK293 cells assessed as change in inositol phosphate accumulation using [3H]-myo-inositol by scintillation proximity assay; type: cell-based; settings: Human betaherpesvirus 5, HEK293
HEK293 [4] = test: Modulation of basal activity of HCMV US28 delta300 mutant expressed in tetracyclin-induced HEK293 cells assessed as change in inositol phosphate accumulation at 10 uM using [3H]-myo-inositol by scintillation proximity assay relative to control; type: cell-based; settings: Human betaherpesvirus 5
HEK293 [5] = test: Modulation of basal activity of HCMV US28 expressed in tetracyclin-induced HEK293 cells assessed as change in inositol phosphate accumulation at 10 uM using [3H]-myo-inositol by scintillation proximity assay relative to control; type: cell-based; settings: Human betaherpesvirus 5
[6] = Modulation of basal activity of HCMV US28 expressed in tetracyclin-induced HEK293 cells assessed as change in inositol phosphate accumulation using [3H]-myo-inositol by scintillation proximity assay; type: cell-based; settings: Human betaherpesvirus 5, HEK293
HEK293 [7] = test: Displacement of [125I]-CX3CL1 from HCMV US28 expressed in HEK293 cells at 10 uM after 3 hrs by gamma counting method relative to control; type: cell-based; settings: Human betaherpesvirus 5
[8] = Inverse agonist activity at HCMV US28 expressed in African green monkey COS7 cells assessed as inhibition of inositol phosphate accumulation using [3H]-myo-inositol by liquid scintillation counting method; type: cell-based; settings: Human betaherpesvirus 5, COS-7
HEK293 [9] = test: Displacement of [125I]-CCL4 from HCMV US28 expressed in HEK293 cells at 10 uM after 3 hrs by gamma counting method relative to control; type: cell-based; settings: Human betaherpesvirus 5
[10] = Inverse agonist activity at HCMV US28 expressed in African green monkey COS7 cells assessed as inhibition of inositol phosphate accumulation using [3H]-myo-inositol after 90 mins by scintillation proximity assay; type: cell-based; settings: Human betaherpesvirus 5, COS-7
[11] = Agonist activity at HCMV US28 expressed in African green monkey COS7 cells assessed as increase in inositol phosphate accumulation using [3H]-myo-inositol after 90 mins by scintillation proximity assay; type: cell-based; settings: Human betaherpesvirus 5, COS-7
HEK293 [12] = test: Effect on inositol phosphate accumulation in HEK293 cells at 10 uM using [3H]-myo-inositol by scintillation proximity assay; type: cell-based; settings: human, hek293, 10 µM

Structure (SMILES) | Efficacy (HEK293 [1]) [%] | EC50 ([3]; read-out: EC50) [nM] | EC50 ([3]; read-out: pEC50 (converted)) [nM] | Efficacy (HEK293 [4]) [%] | Efficacy (HEK293 [5]) [%] | EC50 ([6]; read-out: EC50) [nM] | EC50 ([6]; read-out: pEC50 (converted)) [nM] | further results
Cc1nc2ccccc2n1CC1CCN(Cc2ccc(F)c(F)c2)CC1 | 46 | 1480 | 1580 | 93 |  |  |  | IC50 [2]: 5260 nM; pIC50 [2]: 5.28
O=C(CN1CCN(CC2CCCCC2)CC1)Nc1ccc(F)cc1 |  |  |  |  | -15 |  |  | 
Cc1ccc(NC(=O)CN2CCC(Cn3cnc4ccccc43)CC2)cc1Cl | 71 | 182 | 200 | 50 | 21 | 254 | 251 | IC50 [2]: 1520 nM; pIC50 [2]: 5.82
CNC(=O)NC(=O)CN1CCC(Cn2c(C)nc3ccccc32)CC1 | 0 |  |  |  |  |  |  | 
Cc1nc2ccccc2n1CC1CCN(CC(=O)Nc2cccnc2)CC1 | -2 |  |  |  |  |  |  | 
O=C(CN1CCC(Cn2c(C(F)(F)F)nc3ccccc32)CC1)Nc1ccccc1C(F)(F)F |  |  |  |  | -28 | 1140 | 1260 | 
O=C(CN1CCN(Cc2csc3ccccc23)CC1)NC1CCCC1 |  | > 10000 | < 10000 | 56 |  |  |  | 
Cc1cc2ncn(CC3CCN(CC(=O)NCc4ccc(F)cc4)CC3)c2cc1C | 25 |  |  |  | -16 | 33 | 31.6 | IC50 [2]: > 10000 nM
Cc1cc2ncn(CC3CCN(CC(=O)Nc4ccc5c(c4)OCO5)CC3)c2cc1C |  | 1520 | 1580 | 58 |  |  |  | 
O=C(CN1CCN(Cc2nc(-c3cccc(C(F)(F)F)c3)no2)CC1)NC1CCCCC1 |  |  |  |  | -23 | 19100 | 20000 | 
NC(=O)c1c(NC(=O)CN2CCN(Cc3ccc4c(c3)OCO4)CC2)sc2c1CCCC2 |  |  |  |  | -31 | 89 | 100 | 
Cc1nc2ccccc2n1CC1CCN(CC(=O)Nc2ccc(OC(F)(F)F)cc2)CC1 | 78 | 103 | 100 | 86 | 26 | 269 | 251 | inhibition (HEK293 [7]): 32%; IC50 [2]: 2110 nM; pIC50 [2]: 5.68
Cc1ccc2nc(CN3CCN(CC(=O)Nc4ccc(F)cc4)CC3)cc(=O)n2c1 |  |  |  |  | -10 |  |  | 
Cn1c(CN2CCN(CC(=O)Nc3ccc(F)cc3F)CC2)nc2ccccc21 | 6 | 9880 | 10000 | 75 | -15 | 133 | 126 | 
O=C(CN1CCN(Cc2nc3ccccc3[nH]2)CC1)Nc1ccc(F)cc1F | -7 |  |  |  |  |  |  | 
Cc1nc2ccccc2n1CC1CCN(CC(=O)Nc2cc(C(F)(F)F)ccc2Cl)CC1 | 24 |  |  |  | -43 | 344 | 316 | IC50 [2]: 2990 nM; pIC50 [2]: 5.52
O=C(CN1CCC(Cn2cnc3ccccc32)CC1)N1CCN(c2ccccc2)CC1 |  | 4800 | 5010 | 77 | -27 | 3890 | 3980 | 
N#CC(CCCN1CCC(O)(c2ccc(Cl)cc2)CC1)(c1ccccc1)c1ccccc1 [BERLEX COMPOUND] | 60 | 860 | 794 | 99 | -31 | 10000 | 10000 | EC50 [8]: 3500 nM; inhibition (HEK293 [7]): inactive; inhibition (HEK293 [9]): 65%
Cc1ncc(CN2CCN(CC(=O)Nc3ccc(F)cc3)CC2)s1 |  |  |  |  | -20 |  |  | 
Cc1cc2ncn(CC3CCN(CC(=O)Nc4ccccc4C(F)(F)F)CC3)c2cc1C |  | 19800 | 20000 | 54 | -12 | 80700 | 79400 | 
O=C(CN1CCN(Cc2cccc3ccccc23)CC1)Nc1ccc2c(c1)OCO2 |  | > 10000 | < 10000 | 53 | -24 | 39 | 39.8 | 

Structure (SMILES) | Efficacy (HEK293 [1]) [%] | EC50 ([3]; read-out: EC50) [nM] | EC50 ([3]; read-out: pEC50 (converted)) [nM] | Efficacy (HEK293 [4]) [%] | Efficacy (HEK293 [5]) [%] | EC50 ([6]; read-out: EC50) [nM] | EC50 ([6]; read-out: pEC50 (converted)) [nM] | further results
Cc1nc2ccccc2n1CC1CCN(CC(=O)Nc2ccc(F)cc2F)CC1 | 10 |  |  |  | -39 | 985 | 1000 | EC50 [10]: 1760 nM; inhibition (HEK293 [7]): inactive; inhibition (HEK293 [9]): 10%
O=C(CN1CCN(Cc2csc(-c3ccccc3)n2)CC1)Nc1ccc(F)cc1 |  |  |  |  | -17 |  |  | 
O=C(CN1CCC(Cn2cnc3ccccc32)CC1)Nc1nc2ccc(F)cc2s1 | 20 |  |  |  |  |  |  | IC50 [2]: > 10000 nM
O=C(CN1CCN(CN2C(=O)NC3(CCCCC3)C2=O)CC1)Nc1ccc(OC(F)(F)F)cc1 |  |  |  |  | -12 | 536 | 501 | 
O=C(CN1CCN(Cc2nc3ccccc3n2Cc2ccccc2)CC1)Nc1ccccc1F |  |  |  |  | -20 | 9370 | 10000 | 
Cc1cc(C)n(CC2CCN(CC(=O)N3CCc4ccccc43)CC2)n1 |  | > 10000 | < 10000 | 76 |  |  |  | 
NC(=O)c1ccc(NC(=O)CN2CCC(Cn3cnc4ccccc43)CC2)cc1 | -4 |  |  |  |  |  |  | 
NC(=O)c1ccc(NC(=O)CN2CCC(Cn3c(COc4ccccc4)nc4ccccc43)CC2)cc1 |  | 7960 | 7940 | 77 |  |  |  | 
N#Cc1c(CN2CCN(CC(=O)Nc3ccccc3Cl)CC2)cn2ccccc12 |  |  |  |  | -15 | 67 | 63.1 | 
COc1ccc(-c2csc(NC(=O)CN3CCN(Cc4ccc5c(c4)OCO5)CC3)n2)cc1 |  |  |  |  | -30 | 1800 | 2000 | 
CC(=O)c1ccc(N2CCN(Cc3nc4scc(-c5ccccc5)c4c(=O)[nH]3)CC2)cc1 |  |  |  |  |  |  |  | EC50 [11]: 950 nM
O=C(CN1CCC(Cn2cnc3ccccc32)CC1)Nc1ccccn1 | 10 |  |  |  |  |  |  | 
COC(=O)c1ccc(NC(=O)CN2CCC(Cn3c(C)nc4ccccc43)CC2)cc1 | 32 | 884 | 794 | 70 |  |  |  | IC50 [2]: 9560 nM; pIC50 [2]: 5.02
Cn1c(CN2CCN(CC(=O)Nc3ccc(OC(F)(F)F)cc3)CC2)nc2ccccc21 | 7 | 3360 | 3160 | 59 |  |  |  | 
Cc1sc2nc(CN3CCN(CC(=O)NC4CCC(C)CC4)CC3)[nH]c(=O)c2c1C (centres undefined) |  | 1560 | 1580 | 118 |  |  |  | inhibition (HEK293 [7]): 32%; inhibition (HEK293 [1]): Active
O=C(CN1CCN(Cc2nc(-c3ccc(F)cc3)no2)CC1)Nc1ccc(F)cc1 |  | 1140 | 1260 | -23 | -54 | 3040 | 3020 to 3160 | Activity (HEK293 [12]): Toxic
CCc1ccc(-c2nc(CN3CCN(CC(=O)NC4CC4)CC3)cs2)cc1 |  | 11000 | 10000 | 51 |  |  |  | 
Cc1nc2ccccc2n1CC1CCN(CC(=O)NCCc2ccccc2)CC1 |  | 1800 | 2000 | 107 |  |  |  | IC50 [2]: 5290 nM
CC(C(=O)Nc1sccc1C(N)=O)N1CCN(Cc2nc3ccccc3s2)CC1 (centres undefined) |  |  |  |  | -46 | 3840 | 3980 | 
O=C(CN1CCC(C(=O)N2CCN(c3ccc(F)cc3)CC2)CC1)Nc1ccc(F)cc1 |  |  |  |  | -32 | 1570 | 1550 to 1580 | 
O=C(CN1CCC(Cn2cnc3ccccc32)CC1)Nc1nccs1 | 5 |  |  |  |  |  |  | 

Source: ChEMBL document CHEMBL4152297, “Ligand-selective small molecule modulators of the constitutively active vGPCR US28” (Eur J Med Chem, 2018)
